For 27 molecules, EC50 results are on record in BindingDB's records for doi:10.7270/Q2M043TQ (Nmmlsc, 2010).

In the test the target is T1, Regulator of G-protein signaling 8 (Homo sapiens, UniProt P57771).
T1 sequence (P57771 whole entry): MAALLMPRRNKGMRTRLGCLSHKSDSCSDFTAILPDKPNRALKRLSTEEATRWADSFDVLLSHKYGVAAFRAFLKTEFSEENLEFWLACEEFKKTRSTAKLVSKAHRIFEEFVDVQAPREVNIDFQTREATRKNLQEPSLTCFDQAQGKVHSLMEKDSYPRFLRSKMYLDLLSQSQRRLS
The test is described as follows: small molecules altering RGS8 binding of Galphao – biochemical, multiplex bead flow cytometry, SAR compounds, SAR follow-up (AID 2307). (In flow cytometry, cells or beads pass a laser one at a time.)

As to `CCN(CC)S(=O)(=O)c1cccc(C(=O)NN=Cc2ccc(O)c(O)c2O)c1`, the response was half-maximal at 0.411 µM (EC50). This lies in the sub-micromolar range.

For `CC1(C)OC(=O)C(=Cc2ccc(-c3ccc(S(N)(=O)=O)cc3)o2)C(=O)O1` [SMR000273939], the midpoint of the response, the EC50, lay at 0.701 µM.

For the molecule `Cc1cc(C)c2c(=O)n(CC(=O)N3CCN(c4ccccc4)CC3)ccc2n1` [2,4-dimethyl-6-[2-oxidanylidene-2-(4-phenylpiperazin-1-yl)ethyl]-1,6-naphthyridin-5-one], the EC50 (commonly the concentration at which the effect is half-maximal) was over 30 µM.

In turn, `Cc1cccc(N2CCN(C(=O)COc3noc4nc(C)cc(C)c34)CC2C)c1` (configuration not stated) [2-[(4,6-dimethyl-[1,2]oxazolo[5,4-b]pyridin-3-yl)oxy]-1-[3-methyl-4-(3-methylphenyl)piperazin-1-yl]ethanone] gave an EC50 of over 30 µM.

As to `CN1CCN(C2=C(Cl)C(=O)C(c3cnc(N4CCCCC4)s3)=C(Cl)C2=O)CC1`, the EC50 was found to be 0.021 µM.

For `Cc1cccc(N2CCN(C(=O)Cn3sc4nc(C)cc(C)c4c3=O)CC2C)c1` (configuration not stated) [2-[2-keto-2-[3-methyl-4-(m-tolyl)piperazino]ethyl]-4,6-dimethyl-isothiazolo[5,4-b]pyridin-3-one], the EC50 came out at 0.55 µM.

Regarding `Cc1cccc(N2CCN(C(=O)Cn3ccc4nc(C)cc(C)c4c3=O)CC2C)c1` (configuration not stated) [2,4-dimethyl-6-[2-[3-methyl-4-(3-methylphenyl)piperazin-1-yl]-2-oxidanylidene-ethyl]-1,6-naphthyridin-5-one], the EC50 is over 30 µM.

For the molecule `Cc1cccc(N2CCN(C(=O)COc3nsc4nc(C)cc(C)c34)CC2C)c1` (configuration not stated), the EC50 is 3.18 µM.

Consider `O=c1c2ccccc2sn1-c1ccc(S(=O)(=O)N2CCCC2)cc1` [2-(4-pyrrolidin-1-ylsulfonylphenyl)-1,2-benzothiazol-3-one], for which it took 0.029 µM to reach a half-maximal effect (EC50).

`Cc1[nH]n(-c2ccccc2)c(=S)c1C=NCCCN=Cc1c(C)[nH]n(-c2ccccc2)c1=S` displayed an EC50 of 0.522 µM. This EC50 is about 18-fold higher than that of the molecule before.

In the case of `Nc1c(C(=O)NCC2CCCO2)sc2nc3c(c(-c4ccco4)c12)CC/C3=C/c1ccco1` (configuration not stated) [UNM-0000305796], the EC50 turned out to be 0.489 µM.

With `Cc1[nH]n(-c2ccccc2)c(=S)c1/C=N/c1cccc([N+](=O)[O-])c1` [(4E)-5-methyl-4-[(3-nitroanilino)methylene]-2-phenyl-2-pyrazoline-3-thione], the EC50 came to 0.218 µM.

On to `Cc1cc(C)c2c(n1)CCN(CC(=O)N1CCN(c3ccccc3)CC1)C2=O` [2,4-dimethyl-6-[2-oxidanylidene-2-(4-phenylpiperazin-1-yl)ethyl]-7,8-dihydro-1,6-naphthyridin-5-one], for which the half-maximal effective concentration (EC50) is over 30 µM.

The molecule `Cc1cccc(N2CCN(C(=O)CN3CCc4nc(C)cc(C)c4C3=O)CC2C)c1` (configuration not stated) [KUC103675N] yielded an EC50 of over 30 µM.

In turn, `O=C(COc1ccccc1C(=O)NN=Cc1ccc(O)c(O)c1)NN=Cc1ccc(O)c(O)c1` [N''-[(Z)-(3-hydroxy-4-oxo-1-cyclohexa-2,5-dienylidene)methyl]-2-[2-[[(Z)-(3-hydroxy-4-oxo-1-cyclohexa-2,5-dienylidene)methyl]hydrazo]-2-oxoethoxy]benzohydrazide] showed an EC50 of 0.123 µM. In other words, the sub-micromolar range.

`COc1ccc(C2=CC(=O)C=CC2=O)cc1` [MLS001029846] displayed an EC50 of 0.177 µM.

`CC(=O)OCCCNc1cc(Sc2nc3ccccc3s2)c2nonc2c1[N+](=O)[O-]` [MLS000521052] displayed an EC50 of 0.086 µM.

`O=c1c2ccccc2sn1-c1ccccc1` [2-phenyl-1,2-benzothiazol-3-one] showed an EC50 of over 30 µM.

For `CCN=c1scc(C)n1N=Cc1ccc(O)c(O)c1O`, the EC50 was found to be 0.573 µM.

Regarding `O=C(Cc1csc(N2CCOCC2)n1)NN=Cc1ccc(O)c(O)c1O` [SMR000369439], the EC50 was 0.384 µM.

`CN=c1scc(C)n1N=Cc1ccc(O)c(O)c1O` [(4E)-2,3-dihydroxy-4-[[(4-methyl-2-methylimino-1,3-thiazol-3-yl)amino]methylidene]cyclohexa-2,5-dien-1-one] registered an EC50 of 0.318 µM.

Consider `CCN(CC)S(=O)(=O)c1cccc(-c2n[nH]c(=S)n2N=Cc2ccc(C(=O)OC)cc2)c1` [4-[(E)-[3-[3-(diethylsulfamoyl)phenyl]-5-thioxo-1H-1,2,4-triazol-4-yl]iminomethyl]benzoic acid methyl ester], for which the response was half-maximal at 3.13 µM (EC50). Compared with the last molecule, the EC50 is about 9.8-fold higher.

For `NS(=O)(=O)c1ccc(N=NCc2ccc(O)c(O)c2O)c([N+](=O)[O-])c1` [4-[[(E)-(2,3-dihydroxy-4-oxo-1-cyclohexa-2,5-dienylidene)methyl]hydrazo]-3-nitrobenzenesulfonamide], the EC50 turned out to be 0.029 µM.

`CCC(=O)NC(c1ccc(C)cc1)c1cc([N+](=O)[O-])c2cccnc2c1O` (configuration not stated) [MLS000553854] came in with a half-maximal effective concentration (EC50) of 4.33 µM.

For the molecule `O=C1C(Cl)=C(N2CCCCC2)C(=O)C(Cl)=C1c1cnc(N2CCCCC2)s1` [MLS000550549], the EC50 came out at 0.078 µM.

In turn, `Cc1cc(Cl)ccc1/N=c1/ssnc1Cl` [MLS000539990] gave an EC50 of 0.127 µM.

Turning to `CCOc1ccccc1-c1c2cc(O)c(=O)cc-2oc2cc(O)c(O)cc12` [MLS000578271], the response (inactive by the depositor's call) was half-maximal at 3.68 µM (EC50).
